Test results published in US12358921B2, “Antiviral heterocyclic compounds” (priority 2022, dated 2025).
pEC50: −log10 of the molar value.

Columns and labels:
Assay type in all cases: cell-based
[1] = test system: hMPV A2 TN/94-49; assay: HMPV antiviral assay Method 1 (LLC-MK2 cells, ATP-Lite); conditions: hMPV A2 TN/94-49, LLC-MK2 cells
Procedure: In vitro HMPV antiviral activity was evaluated using the clinical isolate A2 strain TN 94-49 (obtained from Dr. John Williams, Vanderbilt University, Tennessee) and […] cells (ATCC #CCL-7), an immortalized kidney epithelial cell line from Macaca mulatta. Compounds were resuspended in dimethyl sulfoxide (DMSO) at 10 mM, serially diluted and added to a 384-well source plate. Subsequently, the compounds were diluted and transferred onto 384-well assay plates using the Echo-650 automated liquid handling system (Beckman Coulter, Indiana). The test compounds were assessed in duplicate at a top concentration of 2 μM followed by 2.5-fold serial dilutions to give a total of 10 concentration points. DMSO control wells were also included on the assay plates and were either infected or not, acting as positive and negative controls. A2 TN 94-49 virus infections were performed in-suspension with LLC-MK2 cells. The cells were washed twice with PBS and removed from the cell-culture flask with 0.25% trypsin-EDTA (Thermo Fisher Scientific, MA). The trypsin-EDTA was inactivated by resuspending in 2% fetal bovine serum (FBS) and OptiMEM (ThermoFisher Scientific, MA) containing 1% penicillin-streptomycin. Cells were pelleted by centrifuging for 5 minutes at 800 rpm, the supernatant was removed, and cells were re-suspended and washed in PBS plus 100 μg/mL CaCl2). This step was performed twice. Cells were then re-suspended in serum-free (SF)-OptiMEM containing 4 μg/mL TPCK-Trypsin (Sigma Aldrich, MO), 1% penicillin-streptomycin (ThermoFisher Scientific, MA) and 100 μg/mL CaCl2). Cells were counted and seeded at a density of 5,000 cells/well, 12.5 μL/well. Virus infections were done at a multiplicity of infection (MOI) of 0.005 with 12.5 μL added per well. Virus infections were performed in infection media which contained SF-OptiMEM, 100 μg/mL CaCl2) and 1% penicillin-streptomycin. HMPV viral stocks are suspended in infection media+5% glycerol, thus an equal volume of infection media+5% glycerol was added to uninfected wells to equalize the final % glycerol across all wells of the assay plate. The final concentration of TPCK-trypsin was 2 μg/mL. The assay plates were incubated at 37° C., 5% CO2 for 7 days. After 7 days incubation, 12.5 μL of ATP-Lite (PerkinElmer, MA) was added to each well and the raw luminescence values were determined using the Envision 2104 (Perkin Elmer, MA). The average of the raw luminescence values for the cells and virus only positive control wells was subtracted from all conditions tested and the percent cell health was determined by dividing these values by the average of the cells only negative control wells. EC50 values were then calculated by non-linear regression using a four-parameter curve logistic equation. The curve fit model employed was XLFit Dose Response One Site Model 200: y=(A+(B/(1+((x/C)^D)))), where A is the minimum y value, B is the maximum y value, C is the log EC50value, and D is the slope factor. Method 2: In Vitro HMPV Antiviral Activity was Evaluated Using the Clinical Isolate A2 Strain TN 94-49

[2] = test system: hMPV A2 TN/94-49; assay: HMPV antiviral assay Method 2 (LLC-MK2 cells with CP-100-356, ATP-Lite); conditions: hMPV A2 TN/94-49, LLC-MK2 cells, 4 μM CP-100-356, Method 2
Outline: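 The protective effect was measured after 7 days at 37 °C by ATP-Lite luminescence and expressed as % cell health relative to virus-only and cells-only wells, with EC50 from a four-parameter logistic. Cells were LLC-MK2 infected with strain A2 TN/94-49 (MOI 0.16) with final 2 μM CP-100-356 and 2 μg/mL TPCK-trypsin; 10 duplicate concentrations from 200 nM, 2.5-fold steps.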

[3] = test system: HUMAN RSV-A (“LONG” STRAIN); assay: RSV-A assay (CPE, ATPlite) in Hep-2 cells; conditions: human respiratory syncytial virus, 120 h, MOI 0.1, 5-day incubation
Excerpt: Methods for RSV-A Assay Hep-2 cells, (originally derived from tumors grown in irradiated-cortisonised weanling rats that had been injected with epidermoid carcinoma tissue from the larynx of a person, but later found to be indistinguishable from HeLa cells by PCR DNA analysis), were used for the culturing of genotype A, “Long” strain RSV. Flasks were inoculated with RSV and viral stocks were collected once cytopathic effect (CPE) was greater than 90%. Viral stocks in 25% sucrose media were snap frozen using liquid nitrogen to increase viral stability. Viral stock titers were quantified by tissue culture infectious dose 50% (TCID50) using 8,000 cells per well and 3-fold viral dilutions across a 96-well plate, cultured for 4 days. Viral stock titers were also quantified by a plaque forming unit assay, as described elsewhere.
Following extensive parameter testing, the final assay is run as follows: Hep-2 cells are seeded into the inner 60 wells of a 96-well plate at 8,000 cells per well in a volume of 50 μL using Growth Media (DMEM without phenol red, 1% L-Glut, 1% Penn/Strep, 1% nonessential amino acids, 10% heat-inactivated FBS). 2-fold serial dilutions of control and test compounds are added to the wells in duplicate in a total volume of 25 μL. Viral stock is then added to the wells at a multiplicity of infection (MOI) of 0.1 in a volume of 25 μL, bringing the total volume of each well to 100 μL. The MOI is calculated using the PFU/mL, or TCID50 if unavailable. Each 96-well plate has a control column of 6 wells with cells and virus but no compound (negative control, max CPE), a column with cells but no compound or virus (positive control, minimum CPE), and a column with no cells or virus or compound (background plate/reagent control). The control wells with cells but no virus are given an additional 25 μL of growth media containing an equal quantity of sucrose as those wells receiving the viral stock in order to keep consistent in media and volume conditions. The outer wells of the plate are filled with 125 μL of moat media (DMEM, 1% Penn/Strep) to act as a thermal and evaporative moat around the test wells. Following a 5-day incubation period, the plates are read using ATPlite (50 uL added per well), which quantifies the amount of ATP (a measure of cell health) present in each well. Assay plates are read using the Envision luminometer. […] EC50 ranges are as follows: A<0.2 μM; B>0.2 μM.

In the case of `COc1cc(C(=O)NC[C@@](O)(c2ccccc2)c2cc3c(c(-c4cc(Cl)c(F)cc4F)n2)OC[C@]3(C)C(N)=O)cc2ccc(C)nc12` [Example 79], the pEC50 [1] was > 6.30.
In the case of `C[C@]1(C(N)=O)COc2c1cc([C@@](O)(CNC(=O)c1ccc3nc(C(F)(F)F)oc3c1)c1ccccc1)nc2-c1cc(Cl)c(F)cc1F` [Example 82], the pEC50 [1] was < 6.30.
`COc1cc(C(=O)NC[C@@](O)(c2ccccc2)c2cc3c(c(-c4cccc(Cl)c4F)n2)OC[C@]3(C)C(N)=O)cc2cn(C3(F)CC3)nc12` [Example 369] was tested, and the pEC50 [2] was > 6.70 and the pEC50 [3] was > 6.70.
`COc1cc(C(=O)NC[C@@](O)(c2ccccc2)c2cc3c(c(-c4ccc(F)c(F)c4Cl)n2)OC[C@]3(C)C(N)=O)cc2cn(C3(F)CC3)nc12` [Example 370] was tested, and the pEC50 [2] was > 6.70 and the pEC50 [3] was > 6.70.
For `COc1cc(C(=O)NC[C@@](O)(c2ccccc2)c2cc3c(c(-c4ccc(S(C)(=O)=O)cc4F)n2)OC[C@]3(C)C(N)=O)cc2cn(C3(F)CC3)nc12` [Example 371], the pEC50 [2] was < 6.70 and the pEC50 [3] was > 6.70.
In the case of `COc1cc(C(=O)NC[C@@](O)(c2cccc(F)c2)c2cc3c(c(-c4ccc(C(C)(C)O)cc4)n2)OC[C@]3(C)C(N)=O)cc2cn(C3(F)CC3)nc12` [Example 397], the pEC50 [2] was < 6.70 and the pEC50 [3] was < 6.70.
In the case of `COc1cc(C(=O)NC[C@](O)(c2cccc(F)c2)c2cc3c(c(-c4ccc(C(C)(C)O)cc4)n2)OC[C@]3(C)C(N)=O)cc2cn(C3(F)CC3)nc12` [Example 398], the pEC50 [2] was < 6.70 and the pEC50 [3] was < 6.70.
With `COc1cc(C(=O)NC[C@@](O)(c2cccc(F)c2)c2cc3c(c(-c4cc(F)c(F)cc4C(N)=O)n2)OC[C@]3(C)C(N)=O)cc2cn(C3(F)CC3)nc12` [Example 405] the pEC50 [2] was < 6.70 and the pEC50 [3] was < 6.70.
With `COc1cc(C(=O)NC[C@](O)(c2cccc(F)c2)c2cc3c(c(-c4cc(F)c(F)cc4C(N)=O)n2)OC[C@]3(C)C(N)=O)cc2cn(C3(F)CC3)nc12` [Example 406] the pEC50 [2] was < 6.70 and the pEC50 [3] was < 6.70.
In the case of `COc1cc(C(=O)NC[C@](O)(c2cc3c(c(-c4cc(Cl)c(F)cc4F)n2)OC[C@]3(C)C(N)=O)c2nccn2C)cc2cn(C3CC3)nc12` [Example 464], the pEC50 [2] was < 6.70 and the pEC50 [3] was < 6.70.
`COc1cc(C(=O)NCC(O)(c2cc3c(c(-c4cc(Cl)c(F)cc4F)n2)OC[C@]3(C)C(N)=O)c2ccc(Cl)s2)cc2cn(C3CC3)nc12` (stereo partly drawn) [Example 472] was tested, and the pEC50 [2] was < 6.70 and the pEC50 [3] was > 6.70.
In the case of `COc1cc(C(=O)NC[C@@](O)(c2ccc(S(C)(=O)=O)cc2)c2cc3c(c(-c4cc(Cl)c(F)cc4F)n2)OC[C@]3(C)C(N)=O)cc2cn(C3CC3)nc12` [Example 482], the pEC50 [2] was < 6.70 and the pEC50 [3] was > 6.70.
`COc1cc(C(=O)NC[C@@](O)(c2cccc(S(C)(=O)=O)c2)c2cc3c(c(-c4cc(Cl)c(F)cc4F)n2)OC[C@]3(C)C(N)=O)cc2cn(C3CC3)nc12` [Example 483] was tested, and the pEC50 [2] was > 6.70 and the pEC50 [3] was > 6.70.
With `COc1cc(C(=O)NC[C@@](O)(c2ccnc(N)c2)c2cc3c(c(-c4cc(Cl)c(F)cc4F)n2)OC[C@]3(C)C(N)=O)cc2cn(C3CC3)nc12` [Example 484] the pEC50 [2] was > 6.70 and the pEC50 [3] was > 6.70.
With `COc1cc(C(=O)NC[C@@](O)(c2ccnc(C)c2)c2cc3c(c(-c4cc(Cl)c(F)cc4F)n2)OC[C@]3(C)C(N)=O)cc2cn(C3CC3)nc12` [Example 485] the pEC50 [2] was > 6.70 and the pEC50 [3] was > 6.70.
`COc1cc(C(=O)NC[C@@](O)(c2cccc(S(N)(=O)=O)c2)c2cc3c(c(-c4cc(Cl)c(F)cc4F)n2)OC[C@]3(C)C(N)=O)cc2cn(C3CC3)nc12` [Example 486] was tested, and the pEC50 [2] was < 6.70 and the pEC50 [3] was > 6.70.
In the case of `COc1cc(C(=O)NC[C@@](O)(c2cnccn2)c2cc3c(c(-c4cc(Cl)c(F)cc4F)n2)OC[C@]3(C)C(N)=O)cc2cn(C3CC3)nc12` [Example 487], the pEC50 [2] was > 6.70 and the pEC50 [3] was > 6.70.
For `COc1cc(C(=O)NC[C@@](O)(c2cccc(C#N)c2)c2cc3c(c(-c4cc(Cl)c(F)cc4F)n2)OC[C@]3(C)C(N)=O)cc2cn(C3CC3)nc12` [Example 488], the pEC50 [2] was > 6.70 and the pEC50 [3] was > 6.70.
For `COc1cc(C(=O)NC[C@@](O)(c2cccc(Cl)n2)c2cc3c(c(-c4cc(Cl)c(F)cc4F)n2)OC[C@]3(C)C(N)=O)cc2cn(C3CC3)nc12` [Example 489], the pEC50 [2] was > 6.70 and the pEC50 [3] was > 6.70.
`COc1cc(C(=O)NC[C@@](O)(c2cccc(C(C)=O)c2)c2cc3c(c(-c4cccc(Cl)c4Cl)n2)OC[C@]3(C)C(N)=O)cc2cn(C3CC3)nc12` [Example 493] was tested, and the pEC50 [2] was > 6.70 and the pEC50 [3] was > 6.70.
With `COc1cccc([C@](O)(CNC(=O)c2cc(OC)c3nn(C4CC4)cc3c2)c2cc3c(c(-c4cccc(Cl)c4Cl)n2)OC[C@]3(C)C(N)=O)n1` [Example 496] the pEC50 [2] was > 6.70 and the pEC50 [3] was > 6.70.
For `COc1cc([C@](O)(CNC(=O)c2cc(OC)c3nn(C4CC4)cc3c2)c2cc3c(c(-c4cccc(Cl)c4Cl)n2)OC[C@]3(C)C(N)=O)cc(OC)n1` [Example 497], the pEC50 [2] was > 6.70 and the pEC50 [3] was > 6.70.
With `COc1cc([C@](O)(CNC(=O)c2cc(OC)c3nn(C(F)F)cc3c2)c2cc3c(c(-c4cccc(Cl)c4Cl)n2)OC[C@]3(C)C(N)=O)cc(OC)n1` [Example 498] the pEC50 [2] was > 6.70 and the pEC50 [3] was > 6.70.
In the case of `COc1cc(C(=O)NCC(O)(c2cc(F)nc(F)c2)c2cc3c(c(-c4cccc(Cl)c4Cl)n2)OC[C@]3(C)C(N)=O)cc2cn(C3CC3)nc12` (stereo partly drawn) [Example 499], the pEC50 [2] was > 6.70 and the pEC50 [3] was > 6.70.
In the case of `COc1cc(C(=O)NCC(O)(c2cc(F)nc(F)c2)c2cc3c(c(-c4cccc(Cl)c4Cl)n2)OC[C@]3(C)C(N)=O)cc2cn(C(F)F)nc12` (stereo partly drawn) [Example 500], the pEC50 [2] was > 6.70 and the pEC50 [3] was > 6.70.
`COc1cc(C(=O)NC[C@@](O)(c2ccnc(C#N)c2)c2cc3c(c(-c4cc(Cl)c(F)cc4F)n2)OC[C@]3(C)C(N)=O)cc2cn(C3CC3)nc12` [Example 501] was tested, and the pEC50 [2] was > 6.70 and the pEC50 [3] was > 6.70.
With `COc1cc(C(=O)NC[C@@](O)(c2cc[nH]c(=O)c2)c2cc3c(c(-c4cc(Cl)c(F)cc4F)n2)OC[C@]3(C)C(N)=O)cc2cn(C3CC3)nc12` [Example 504] the pEC50 [2] was < 6.70 and the pEC50 [3] was > 6.70.
`COc1cc(C(=O)NC[C@@](O)(c2ccc(=O)[nH]c2)c2cc3c(c(-c4cc(Cl)c(F)cc4F)n2)OC[C@]3(C)C(N)=O)cc2cn(C3CC3)nc12` [Example 505] was tested, and the pEC50 [2] was < 6.70 and the pEC50 [3] was > 6.70.
